For one experiment, the system named is Bacillus cereus. Kind of experiment: Preservative power test (challenge test), lotion dosage form. In kind it is cell-based. The note with it: 0.5%. As for the experimental part: (§1) In order to investigate the possibility of R1 as a preservative compared with methyl paraben, the preservative power test was conducted by measuring the sterilizing power of a toner dosage form and a lotion dosage form of R1 against gram positive pathogens (Staphylococcus aureus and Bacillus cereus) and gram negative pathogens (Pseudomonas aeruginosa and Escherichia coli). The preservative power test was conducted on the basis of the U.S. Cosmetics, Toiletry, and Fragrance Association (CTFA), and the basis is that a particular material has a possibility as a preservative if the particular material in dosage forms of a toner or lotion kills 99.9% of inoculated bacteria within 7 days.
(§2) R1 and methyl paraben, which were dissolved in methanol, each were added to the toner dosage form, so that the final concentration of each of R1 and the methyl paraben had 0% and 0.5%, and the S. aureus, B. cereus, P. aeruginosa, and C. albicans cultures each were inoculated in each container. The number of inoculated bacterial cells was 106-107 colony forming unit (CFU)/ml. While the bacteria-inoculated lotions were kept at room temperature, each lotion was diluted immediately, one day, three days, five days, and seven days after the inoculation of bacteria, and 200 μl of the lotions inoculated with S. aureus, B. cereus, and P. aeruginosa each were as plated on LB agar plate, and 200 μl of the lotion inoculated with C. albicans was plated on YPD agar plate. The death or not of bacteria was checked by calculating the number of cells and then comparing the calculated number with the number of initially inoculated bacteria. As control, only methanol was added to the lotion dosage form, and the bacteria culture was inoculated, followed by repeated tests.

The next experiment concerns Candida albicans. Described as above. In kind it is cell-based. Conditions: 0.5%. On the procedure:
as §1, §2

The next experiment has as its system Pseudomonas aeruginosa. The description is as above. Type of experiment: cell-based. Conditions: 0.5%. On the procedure:
as §1, §2

The test system of the next experiment is Staphylococcus aureus. The experiment is described as above. Conditions: 0.5%. Type of experiment: cell-based. On the procedure:
as §1, §2

Experiment [1] is described as follows: DPPH scavenging activity test (antioxidative effect). In kind it is biochemical. Conditions: concentration of 0.5% or more; 30 minutes, absorbance 517 nm; compared with ascorbic acid (AA). As for the experimental part: The color change of the DPPH radical is distinctive as it reacts with a reagent having excellent antioxidative ability. R1, ascorbic acid (AA), and methyl paraben (MTP) each were dissolved at different concentrations in methanol. The thus obtained samples (100 μl) each were dissolved at a concentration of 0.006% in methanol, and mixed with 100 μl of the DPPH radical solution to prepare a total volume of 200 μl, followed by reaction in a light-blocked space for 30 minutes. After completion of the reaction, the absorbance of each mixture was measured at 517 nm to determine antioxidative ability of each sample.

The next experiment deals with S. aureus. Kind of experiment: Antibiotic activity of R1 fractions and rhamnolipids (clear zone on agar plate). In kind it is cell-based, Staphylococcus aureus. The note with it: concluded from fraction activity and LC/MS peaks 1 and 2. On the procedure: 1 mg of a mixture state of R1 extracted from a microorganism (P. aeruginosa) culture was dissolved in methanol, and then injected in the sep-Pak vac 1cc tc18 cartridge column. After that, the column was washed with solvent A, and solvent B as a development solvent was injected thereinto. Solvent B with different concentrations was injected into the column, and the fractions passing through the column were collected, and named fraction 1, fraction 2, fraction 3, fraction 4, fraction 5, and fraction 6. The different concentrations of solvent B injected to the column were 50%, 55%, 60%, 65%, 70%, and 75%.
Each of the obtained fractions was dried, and then dissolved at a concentration of 10 mg/ml in methanol. 20 μl of each of the fractions dissolved in methanol was dropped on an agar plate plated with the S. aureus culture, and cultured at 37° C. for 18 hours. After 18 hours, the clear zone generated on the agar plate was observed.

Turning to `COC(=O)c1ccc(O)cc1` [MTP, methyl paraben], the “survival rate of inoculated bacteria” value with Bacillus cereus (Day 0) came to 100%; in the experiment with Bacillus cereus (Day 1), 0.12%; with Bacillus cereus (Day 3), 0.06%; with Bacillus cereus (Day 5) it was 0.02%; in the experiment on Bacillus cereus (Day 7), 0.01%; in the experiment on Candida albicans (Day 0), 100%. Besides, the “survival rate of inoculated bacteria” value worked out at 0% with Candida albicans (Day 1); 0% in the experiment on Candida albicans (Day 3); 0% with Candida albicans (Day 5); 0% in the experiment on Candida albicans (Day 7); 100% in the experiment on Pseudomonas aeruginosa (Day 0); 0% with Pseudomonas aeruginosa (Day 1). Moreover, the “survival rate of inoculated bacteria” value with Pseudomonas aeruginosa (Day 3) amounted to 0%; with Pseudomonas aeruginosa (Day 5) it was 0%; in the experiment on Pseudomonas aeruginosa (Day 7), 0%; in the experiment with Staphylococcus aureus (Day 0), 100%; in the experiment with Staphylococcus aureus (Day 1), 0%; in the experiment with Staphylococcus aureus (Day 3) it was 0%. Also, the “survival rate of inoculated bacteria” value in the experiment with Staphylococcus aureus (Day 5) and in the experiment with Staphylococcus aureus (Day 7) was 0% throughout. Further, in experiment [1], the “antioxidative effect (DPPH scavenging activity)” value is reported as “significantly low antioxidative effect”.

For the molecule `CCCCCCCC(CC(=O)O)OC(=O)CC(CCCCCCC)O[C@@H]1O[C@@H](C)[C@H](O)[C@@H](O)[C@H]1O` (some centres unmarked) [Rha-C10-C10], in the experiment with S. aureus, the “active ingredient having antibacterial activity” value is “active ingredients having antibacterial activity”.

`CCCCCCCC(CC(=O)O)OC(=O)CC(CCCCCCC)OC1OC(C)C(O)C(O)C1OC1OC(C)C(O)C(O)C1O` (stereo not drawn) [Rha-Rha-C10-C10]: the “active ingredient having antibacterial activity” value in the experiment with S. aureus is listed as “active ingredients having antibacterial activity”.

The record behind these values is US20170143771A1, “COMPOSITION CONTAINING PSEUDOMONAS AERUGINOSA CULTURE SOLUTION EXTRACT HAVING ANTIBIOTIC AND ANTISEPTIC ACTIVITIES, AND USE THEREOF” (JOINT CENTER FOR BIOSCIENCES, priority 2014, published 2017).
